Data: ChEMBL document CHEMBL5370566, “Flindissone, a Limonoid Isolated from Trichilia prieuriana, Is an LXR Agonist” (J Nat Prod, 2023)
Calls of active or inactive are those of the source. The rule behind the calls is not given here.

Tests used:
[1] = target: T1, Oxysterols receptor LXR-beta (Homo sapiens, UniProt P55055); assay: Agonist activity at full length human LXRbeta transfected in HEK293T cells co-expressing ABCA1 assessed as increase in luciferase activity measured after 18 hrs by luciferase reporter gene assay; type: cell-based
T1 sequence (P55055 whole entry): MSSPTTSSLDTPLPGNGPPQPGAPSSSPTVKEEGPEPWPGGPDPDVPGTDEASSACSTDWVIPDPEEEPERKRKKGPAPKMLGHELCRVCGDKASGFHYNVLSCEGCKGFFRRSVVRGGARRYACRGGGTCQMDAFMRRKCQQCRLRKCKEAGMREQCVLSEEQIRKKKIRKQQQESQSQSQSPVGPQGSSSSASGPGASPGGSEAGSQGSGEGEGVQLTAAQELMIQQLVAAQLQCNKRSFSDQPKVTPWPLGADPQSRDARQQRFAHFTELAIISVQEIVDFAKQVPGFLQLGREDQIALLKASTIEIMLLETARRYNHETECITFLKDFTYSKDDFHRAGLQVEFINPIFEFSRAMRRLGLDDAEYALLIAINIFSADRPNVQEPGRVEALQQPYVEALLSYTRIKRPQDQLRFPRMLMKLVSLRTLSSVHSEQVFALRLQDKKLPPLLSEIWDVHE

HepG2 [2] = assay: Effect on LDLR mRNA expression level in human HepG2 cells at 5 uM by RT-qPCR analysis; type: functional, cell-based
Liver X receptor [3] = target: T2, Liver X receptor (Homo sapiens, UniProt Q13133+P55055); assay: Agonist activity at LXR in human HepG2 cells assessed as reduction in HMGCR mRNA expression upto 10 uM measured after 72 hrs by RT-qPCR analysis; type: toxicity, cell-based; details: hepg2, 72 h
T2 sequence (Q13133 whole entry): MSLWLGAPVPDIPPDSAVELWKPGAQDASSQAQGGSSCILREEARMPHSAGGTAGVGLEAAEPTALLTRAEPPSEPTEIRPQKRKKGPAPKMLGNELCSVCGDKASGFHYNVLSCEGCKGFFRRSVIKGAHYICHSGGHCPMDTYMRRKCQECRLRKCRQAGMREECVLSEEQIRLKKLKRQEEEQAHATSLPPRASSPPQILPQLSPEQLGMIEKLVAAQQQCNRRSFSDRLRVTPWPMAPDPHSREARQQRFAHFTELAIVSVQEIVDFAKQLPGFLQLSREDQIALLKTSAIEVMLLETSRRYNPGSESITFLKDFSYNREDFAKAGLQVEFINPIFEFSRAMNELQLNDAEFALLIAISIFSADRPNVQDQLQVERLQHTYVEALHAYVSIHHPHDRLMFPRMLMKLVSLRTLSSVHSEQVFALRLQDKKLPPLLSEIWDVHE
T2 sequence (P55055 whole entry): T1 sequence (P55055 whole entry)

Liver X receptor [4] = target: T2, Liver X receptor; assay: Agonist activity at LXR in human HepG2 cells assessed as reduction in SREBP1c proteolytic processing upto 10 uM measured after 72 hrs by Western blot analysis; type: toxicity, cell-based; details: hepg2, 72 h
[5] = target: T3, Oxysterols receptor LXR-alpha (Homo sapiens, UniProt Q13133); assay: Agonist activity at full length human LXRalpha transfected in HEK293T cells co-expressing ABCA1 assessed as increase in luciferase activity measured after 18 hrs by reporter gene assay; type: cell-based
T3 sequence (Q13133 whole entry): T2 sequence (Q13133 whole entry)

Liver X receptor [6] = target: T2, Liver X receptor; assay: Agonist activity at LXR in human HepG2 cells assessed as reduction in SREBP1c proteolytic processing measured after 72 hrs by Western blot analysis; type: toxicity, cell-based; details: hepg2, 72 h, dose 1-10 µM
[7] = target: T4, Oxysterols receptor LXR-alpha (Homo sapiens) (UniProt Q13133); assay: Agonist activity at human LXRalpha-LBD transfected in HEK293T cells co-expressing Gal4-DBD assessed as increase in luciferase activity measured after 18 hrs by reporter gene assay; type: cell-based; details: filed as agonist, dose 1-10 µM
T4 sequence (whole entry): T2 sequence (Q13133 whole entry)

[8] = target: T5, Nuclear receptor ROR-gamma (Homo sapiens) (UniProt P51449); assay: Activation at RORgamma (unknown origin)
T5 sequence (whole entry): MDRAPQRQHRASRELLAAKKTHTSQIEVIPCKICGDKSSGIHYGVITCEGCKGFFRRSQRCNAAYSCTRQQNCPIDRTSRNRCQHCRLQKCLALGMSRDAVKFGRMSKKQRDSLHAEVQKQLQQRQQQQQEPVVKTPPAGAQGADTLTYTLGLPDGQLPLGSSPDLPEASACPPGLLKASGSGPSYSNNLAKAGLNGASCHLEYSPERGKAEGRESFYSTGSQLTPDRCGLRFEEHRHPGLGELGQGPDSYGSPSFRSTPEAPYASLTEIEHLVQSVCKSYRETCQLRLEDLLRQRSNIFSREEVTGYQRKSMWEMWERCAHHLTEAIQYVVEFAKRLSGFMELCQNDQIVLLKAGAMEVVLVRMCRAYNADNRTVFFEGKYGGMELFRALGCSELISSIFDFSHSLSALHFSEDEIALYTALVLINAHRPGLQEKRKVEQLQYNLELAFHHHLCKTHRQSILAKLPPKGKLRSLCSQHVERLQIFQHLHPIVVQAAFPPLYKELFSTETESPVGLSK

[9] = target: T6, Liver X receptor (Homo sapiens) (UniProt Q13133+P55055); assay: Agonist activity at LXR in human THP-1 cells assessed as increase of ABCG1 mRNA expression level at 1 to 10 uM by RT-qPCR analysis; type: cell-based; details: filed as agonist, dose 1-10 µM
[10] = target: T6, Liver X receptor (Homo sapiens); assay: Agonist activity at LXR in human THP-1 cells assessed as increase of ABCA1 protein expression level at 1 to 10 uM by Western blot analysis; type: cell-based; details: filed as agonist, dose 1-10 µM
Liver X receptor [11] = target: T2, Liver X receptor; assay: Agonist activity at LXR in human HepG2 cells assessed as increase in SREBF1 protein expression level at 1 to 10 uM measured after 72 hrs by Western blot analysis; type: toxicity, cell-based; details: hepg2, 72 h, dose 1-10 µM
[12] = target: T6, Liver X receptor (Homo sapiens); assay: Agonist activity at LXR in human HepG2 cells assessed as increase of IDOL mRNA expression level at 10 uM by RT-qPCR analysis; type: cell-based; details: filed as agonist
[13] = target: T7, Oxysterols receptor LXR-beta (Homo sapiens) (UniProt P55055); assay: Agonist activity at human LXRbeta-LBD transfected in HEK293T cells co-expressing Gal4-DBD assessed as increase in luciferase activity measured after 18 hrs by reporter gene assay; type: cell-based; details: filed as agonist, dose 1-10 µM
T7 sequence (whole entry): T1 sequence (P55055 whole entry)

HEK-293T = assay: Cytotoxicity against HEK293T cells transfected with LXRalpha assessed as cell viability at >10 uM measured after 18 hrs by luciferase reporter gene assay; type: toxicity, cell-based; details: human
HepG2 [14] = assay: Effect on LDLR mRNA expression level in human HepG2 cells at 1 to 10 uM by RT-qPCR analysis; type: functional, cell-based; details: dose 1-10 µM
[15] = target: T6, Liver X receptor (Homo sapiens); assay: Agonist activity at LXR in cholesterol treated human THP-1 cells assessed as stimulation of plasma mediated cholesterol efflux pre incubated for 24 hrs followed by plasma addition measured after 6 hrs by liquid scintillation counting analysis; type: cell-based; details: filed as agonist, dose 1-10 µM, time 30.0 hrs
[16] = target: T8, Bile acid receptor (Homo sapiens) (UniProt Q96RI1); assay: Activation at FXR (unknown origin)
T8 sequence (whole entry): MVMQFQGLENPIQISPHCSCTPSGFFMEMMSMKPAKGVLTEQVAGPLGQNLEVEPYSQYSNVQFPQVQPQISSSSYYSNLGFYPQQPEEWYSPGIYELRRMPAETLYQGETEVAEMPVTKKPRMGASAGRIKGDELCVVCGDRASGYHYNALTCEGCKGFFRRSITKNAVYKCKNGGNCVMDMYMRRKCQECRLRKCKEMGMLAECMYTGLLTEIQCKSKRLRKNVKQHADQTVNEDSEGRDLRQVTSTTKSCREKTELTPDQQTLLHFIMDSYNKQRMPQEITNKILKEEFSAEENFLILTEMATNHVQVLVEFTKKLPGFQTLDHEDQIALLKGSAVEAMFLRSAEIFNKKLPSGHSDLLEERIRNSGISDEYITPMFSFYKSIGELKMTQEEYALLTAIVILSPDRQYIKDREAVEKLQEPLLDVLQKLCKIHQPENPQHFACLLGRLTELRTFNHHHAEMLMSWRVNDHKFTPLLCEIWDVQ

Liver X receptor [17] = target: T2, Liver X receptor; assay: Agonist activity at LXR in human HepG2 cells assessed as reduction in HMGCR mRNA expression measured after 72 hrs by RT-qPCR analysis; type: toxicity, cell-based; details: hepg2, 72 h, dose 1-10 µM
Homo sapiens = organism: Homo sapiens; assay: Activation at RXR (unknown origin)
[18] = target: T6, Liver X receptor (Homo sapiens); assay: Agonist activity at LXR in cholesterol treated human THP-1 cells assessed as stimulation of plasma mediated cholesterol efflux at 5 uM pre incubated for 24 hrs followed by plasma addition measured after 6 hrs by liquid scintillation counting analysis; type: cell-based; details: filed as agonist
Liver X receptor [19] = target: T2, Liver X receptor; assay: Agonist activity at LXR in human HepG2 cells assessed as increase in SREBF1 mRNA expression level at 1 to 10 uM measured after 72 hrs by RT-qPCR analysis; type: toxicity, cell-based; details: hepg2, 72 h, dose 1-10 µM
[20] = target: T6, Liver X receptor (Homo sapiens); assay: Agonist activity at LXR in human THP-1 cells assessed as increase of ABCA1 mRNA expression level at 1 to 10 uM by RT-qPCR analysis; type: cell-based; details: filed as agonist, dose 1-10 µM
HepG2 [21] = assay: Effect on LDLR mRNA expression level in human HepG2 cells at 1 uM by RT-qPCR analysis; type: functional, cell-based
Liver X receptor [22] = target: T2, Liver X receptor; assay: Agonist activity at LXR in human HepG2 cells assessed as increase in cellular lipid content at 1 uM measured after 72 hrs by Oil Red O staining based assay; type: toxicity, cell-based; details: hepg2, 72 h

What does the source list for `CC(C)CC[C@@H](O)[C@@H](C)[C@H]1CC[C@H]2[C@@H]3CC=C4C[C@@H](O)CC[C@]4(C)[C@H]3CC[C@]12C` [22(R)-HYDROXYCHOLESTEROL]?
EC50 [1]: 1500 nM; Activity (HepG2 [2]): inactive; Activity (Liver X receptor [3]): Active; Activity (Liver X receptor [4]): Not Active; EC50 [5]: 1200 nM

With `CC(C)=C[C@@H]1C[C@@H]([C@@H]2CC[C@]3(C)C4=CC[C@H]5C(C)(C)C(=O)CC[C@]5(C)[C@H]4CC[C@@]23C)[C@H](O)O1` as the molecule, how does the Activity (Liver X receptor [6]) read?
Its Activity is “Dose-Dependent Effect”.

And the Activity [7]?
The Activity was “Dose-Dependent Effect”.

What about the Activity [8] of the same molecule?
Its Activity is “inactive”.

And the Activity [9]?
The Activity was “Active”.

What about the EC50 [1] of the same molecule?
Its EC50 is 5300 nM.

And the Activity [10]?
Its Activity is “Active”.

What about the Activity (Liver X receptor [11]) of the same molecule?
Its Activity is “Not Active”.

What about the Activity [12] of the same molecule?
The Activity was “Active”.

What about the Activity [13] of the same molecule?
The Activity was “Dose-Dependent Effect”.

And the Activity (HEK-293T)?
The Activity was “Toxic”.

And the Activity (HepG2 [14])?
Its Activity is “inactive”.

And the Activity [15]?
The Activity was “Active”.

And the Activity [16]?
The Activity was “inactive”.

And the Activity (Liver X receptor [17])?
Its Activity is “Dose-Dependent Effect”.

What about the Activity (Homo sapiens) of the same molecule?
The Activity was “inactive”.

What about the Activity [18] of the same molecule?
The Activity was “Active”.

What about the Activity (Liver X receptor [19]) of the same molecule?
Its Activity is “Not Active”.

And the EC50 [5]?
The EC50 was 1600 nM.

What about the Activity [20] of the same molecule?
Its Activity is “Active”.

Which results are given for `O=C(O)Cc1cccc(OCCCN(Cc2cccc(C(F)(F)F)c2Cl)CC(c2ccccc2)c2ccccc2)c1`?
Activity (HepG2 [21]): inactive; Activity (Liver X receptor [22]): Toxic
